# Reference: PubChem BioAssay (NCI)
# Several values for one entry are separate records, joined by “and”; a condition that tells them apart may be missing. Identical values can stand only once.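 Results reflect a 48-hour exposure of cells in 96-well plates to compound at five concentrations. Abbreviation: GI50, concentration required for 50% inhibition of growth. TGI is the concentration that stops growth completely.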
# What was measured:
# Test in all cases: inhibition of tumour cell growth, NCI panel, 48 h
# NCI-H23 lung = test system: NCI-H23 lung
# MDA-MB-435 = test system: MDA-MB-435
# UACC-62 melanoma = test system: UACC-62 melanoma
# RXF 393 renal = test system: RXF 393 renal
# IGROV1 ovarian = test system: IGROV1 ovarian
# SK-MEL-2 melanoma = test system: SK-MEL-2 melanoma
# COLO 205 colon = test system: COLO 205 colon
# T-47D breast = test system: T-47D breast
# KM12 colon = test system: KM12 colon
# HS 578T breast = test system: HS 578T breast
SMILES,GI50 (NCI-H23 lung) [µM],TGI (NCI-H23 lung),GI50 (MDA-MB-435),TGI (MDA-MB-435),GI50 (UACC-62 melanoma) [µM],TGI (UACC-62 melanoma),GI50 (RXF 393 renal) [µM],TGI (RXF 393 renal) [µM],GI50 (IGROV1 ovarian) [µM],TGI (IGROV1 ovarian),GI50 (SK-MEL-2 melanoma) [µM],TGI (SK-MEL-2 melanoma),GI50 (COLO 205 colon) [µM],TGI (COLO 205 colon),GI50 (T-47D breast) [µM],TGI (T-47D breast),GI50 (KM12 colon) [µM],TGI (KM12 colon),GI50 (HS 578T breast) [µM],TGI (HS 578T breast)
C=C1C(=O)O[C@H]2[C@H]1CC/C(COC(=O)NCc1ccc(OC)cc1)=C\CC[C@@]1(C)O[C@@H]21,1.45,7.96 µM,0.805 µM,2.62 µM,1.59,3.16 µM,0.509,1.07,0.783,2.79 µM,3.04,10.4 µM,0.656,1.55 µM,0.757,2.91 µM,4.75,20.5 µM,3.1,30.7 µM
CCN1CCN(c2cc(C)nc(N(CCCNc3ccnc4cc(Cl)ccc34)Cc3ccc4c(c3)OCO4)n2)CC1,7.4,> 100 µM,1.77 µM,3.3 µM,1.85,3.51 µM,1.52,3.38,3.46,16.7 µM,2.14,4.74 µM,1.72,3.39 µM,2.26,4.88 µM,4.14,> 100 µM,1.93,5.26 µM
CN1CCN(Cc2ccc(NC(=O)c3cncc(C#Cc4cnc(N)cc4C#N)c3)cc2C(F)(F)F)CC1,2.24,13.7 µM,1.98 µM,11.7 µM,0.877,3.92 µM,1.45,5.55,1.16,5.62 µM,1.15,3.44 µM,1.39,12.8 µM,4.42,21.1 µM,0.0632,13.3 µM,1.46,7.46 µM
O=C(/C=C/c1ccc(C(F)(F)F)cc1)Nc1ccc(C=C2c3ccccc3C(=O)c3ccccc32)cc1,3.32,> 100 µM,0.64 µM,2.67 µM,3.04,63.7 µM,8.26,60.4,33.2,> 100 µM,4.11,30.6 µM,6.18,38.4 µM,3.39,56.8 µM,2.33,40.6 µM,13.1,> 100 µM
CC(C)c1nc(N(C)S(C)(=O)=O)nc(-c2ccc(F)cc2)c1/C=C/[C@@H](O)C[C@@H](O)CC(=O)O,> 100,> 100 µM,79.9 µM,> 100 µM,42.1,> 100 µM,41.5,> 100,> 100,> 100 µM,26.2,> 100 µM,> 100,> 100 µM,> 100,> 100 µM,> 100,> 100 µM,51.9,> 100 µM
O=C1C2=C(C(=O)c3cnccc31)C1C=CC2CC1 (stereo not drawn),1.82,4.02 µM,1.8 µM,3.55 µM,1.92,3.4 µM,1.51,2.85,2.2,4.31 µM,1.89,3.52 µM,2.32,4.62 µM,0.374,1.5 µM,2.65,6.66 µM,2.77,6.6 µM
NS(=O)(=O)c1ccc(N2N=C3c4ccccc4CC3C2c2cccs2)cc1 (stereo not drawn),20.3,48.7 µM,19.3 µM,48.1 µM,21.8,44.3 µM,20.6,62.6,30,89.9 µM,> 100,> 100 µM,58.9,> 100 µM,66.9,> 100 µM,15.7,57.2 µM,28.7,76.9 µM
CN(C)CCNC(=O)c1ccc(-c2nc3ccc4[nH]ncc4c3c3c2C2CCC3C2)cc1 (stereo not drawn),1.63,5.94 µM,1.28 µM,4.45 µM,0.898,3.72 µM,0.267,1.18,1.52,6.2 µM,1.55,3.74 µM,0.569,4.19 µM,2.25,7.86 µM,0.534,3.36 µM,0.494,2.62 µM
CN(C)c1ccc(/C=C2\N=C(c3ccccc3)N(c3cc(C(F)(F)F)ccc3Cl)C2=O)cc1,> 100,> 100 µM,> 100 µM,> 100 µM,> 100,> 100 µM,> 100,> 100,> 100,> 100 µM,> 100,> 100 µM,> 100,> 100 µM,> 100,> 100 µM,> 100,> 100 µM,> 100,> 100 µM
NC(=O)[C@@H](CC1CC1)[C@@H](CCC(F)(F)F)C(=O)N[C@H]1N=C(c2ccccc2)c2cccc(F)c2NC1=O,> 100,> 100 µM,66.7 µM,> 100 µM,> 100,> 100 µM,68,> 100,31.7,> 100 µM,> 100,> 100 µM,> 100,> 100 µM,15.3,56.8 µM,> 100,> 100 µM,> 100,> 100 µM
CSc1ncc(Br)c(Sc2nc(N)nc3nc[nH]c23)n1,3.74,> 100 µM,2.5 µM,> 100 µM,2.48,12.2 µM,2.97,28.5,12.9,44.2 µM,1.12,7.33 µM,3.09,9.17 µM,1.95,21.2 µM,3.63,22.7 µM,6.71,> 100 µM
Oc1c(Cl)cc(Cl)c2ccc(Cn3cc(-c4cc(C(F)(F)F)cc(C(F)(F)F)c4)nn3)nc12,3.05,9.88 µM,1.82 µM,4.18 µM,2.15,6.65 µM,0.555,1.97,1.5,3.47 µM,2.71,9.56 µM,1.35,2.89 µM,1.67,5.55 µM,10.5,23.4 µM,2.98,9.3 µM
CC1=C2C(=CC(C)(C)[C@@H]2O)C(=O)[C@](C)(O)C12CC2,0.0157,0.0607 µM and 0.0266 µM,0.025 µM and 0.0147 µM,0.0706 µM and 0.0319 µM,,0.0623 µM and 0.0678 µM,,0.0199,0.0231,0.105 µM and 0.0698 µM,0.0196,0.0525 µM and 0.0223 µM,0.0209,0.0989 µM and 0.0977 µM,0.0489,0.359 µM and 0.0974 µM,0.0205,0.123 µM and 0.411 µM,0.0276,0.0855 µM and 0.0395 µM
O=C(Nc1ccc(F)cc1F)c1cc(Cl)ccc1O,1.6,8.27 µM,1.21 µM,8.53 µM,0.489,3.03 µM,1.37,5.1,1.49,> 100 µM,1.16,4.93 µM,7.79,22.5 µM,0.473,5.5 µM,2.31,7.68 µM,0.978,7.25 µM
O=S1(=O)N(Cc2ccccc2)[C@@H](Cc2ccccc2)[C@H](O)[C@H](O)[C@H](Cc2ccccc2)N1Cc1ccccc1,3.11,6.71 µM,3.33 µM,7.1 µM,2.86,6.4 µM,2.6,5.24,3.57,7.24 µM,2.8,5.76 µM,4.26,10.4 µM,3.95,10.2 µM,2.94,5.84 µM,3.27,8.38 µM
Cc1cc(C)c2c(n1)sc1c(N)ncnc12,> 25,> 25 µM,> 25 µM,> 25 µM,> 25,> 25 µM,8.72,> 25,19.7,> 25 µM,> 25,> 25 µM,17,> 25 µM,> 25,> 25 µM,> 22.3,> 25 µM,11.4,> 25 µM
CCCCCCCCOC(=O)c1c(C)[nH]c(/C=C2\N=C(c3ccc[nH]3)C=C2OC)c1C,0.0965,2.2 µM,0.0226 µM,1.41 µM,0.0295,0.0904 µM,0.0535,1.73,0.0414,6.81 µM,0.0279,0.0952 µM,0.0846,2.62 µM,0.0556,10.4 µM,0.0355,1.97 µM,0.0494,0.578 µM
CCOc1ccc(/C(C=O)=C(\Cl)c2ccc(OC)cc2)cc1,,> 100 µM,,> 100 µM,,> 100 µM,,> 100,,> 100 µM,,> 100 µM,,> 100 µM,,> 100 µM,,> 100 µM,,> 100 µM
CCN1CCN(Cc2ccc(NC(=O)Nc3nc4ccc(Oc5ccnc(C(=O)NC)c5)cc4s3)cc2C(F)(F)F)CC1,1.83,3.86 µM,1.44 µM,2.86 µM,1.7,3.28 µM,1.67,3.13,1.76,3.62 µM,1.75,3.51 µM,1.8,3.39 µM,1.99,4.25 µM,0.019,1.63 µM,2.01,4.44 µM
